Source: ChEMBL document CHEMBL6074655, “Vindeburnol: A natural product-inspired chemical tool for central nervous system drug design” (Eur J Med Chem, 2024)

How the values were obtained:
[1] = Toxicity in male mouse assessed as mortality rate at 50 mg/kg, iv; type: organism-based; conditions: in vivo
[2] = Toxicity in female mouse assessed as mortality rate at 50 mg/kg, iv; type: organism-based; conditions: in vivo

Question: Which mortality [1] does the source give for `O[C@@H]1C[C@H]2CCCN3CCc4c(n1c1ccccc41)[C@H]23` here?
Answer: Its mortality is 70%.

Question: And the mortality [2]?
Answer: The mortality was 64%.
